Read-outs that look alike come from different tables or passages of the source.
Legend:
UO-31 = assay: NCI five-dose assay; format: cell-based; details: Renal Cancer UO-31
NCI-H23 = assay: NCI five-dose assay; format: cell-based; details: Non-Small-Cell Lung Cancer NCI-H23
CNS Cancer subpanel = assay: NCI five-dose assay, subpanel; format: cell-based, human
Protocol: (§1) The outcomes were used to form log concentration vs. percentage growth inhibition curves and three response parameters (GI50, total growth inhibition (TGI), and LC50) were calculated for each cell line (Table 2).
(§2) The criterion for selectivity of a compound depends upon the ratio obtained by dividing the full-panel MID (the average sensitivity of all cell lines toward the test agent) (μM) by the individual subpanel MIDs (μM).

Breast Cancer subpanel = assay: NCI five-dose assay, subpanel; format: cell-based, human; details: for GI50: Homo sapiens
Protocol: as §1, §2

Renal Cancer subpanel = assay: NCI five-dose assay, subpanel; format: cell-based, human
Protocol: as §1, §2

Leukemia subpanel = assay: NCI five-dose assay, subpanel; format: cell-based, human; details: for GI50: Homo sapiens
Protocol: as §1, §2

Prostate Cancer subpanel = assay: NCI five-dose assay, subpanel; format: cell-based, human
Protocol: as §1, §2

Melanoma subpanel = assay: NCI five-dose assay, subpanel; format: cell-based, human
Protocol: as §1, §2

Colon Cancer subpanel = assay: NCI five-dose assay, subpanel; format: cell-based, human; details: for GI50: Homo sapiens
Protocol: as §1, §2

Ovarian Cancer subpanel = assay: NCI five-dose assay, subpanel; format: cell-based, human; details: for GI50: Homo sapiens
Protocol: as §1, §2

[1] = tested on: Non-Small-Cell Lung Cancer subpanel; assay: NCI five-dose assay, subpanel; format: cell-based, human
Protocol: as §1, §2

LOX IMVI = assay: NCI five-dose assay; format: cell-based; details: Homo sapiens, Melanoma LOX IMVI
MALME-3M = assay: NCI five-dose assay; format: cell-based; details: Homo sapiens, Melanoma MALME-3M
CCRF-CEM = assay: NCI five-dose assay; format: cell-based; details: Homo sapiens, Leukemia CCRF-CEM
[2] = tested on: P-glycoprotein (Pgp) in MDR-SR Leukemia cell line; assay: Multidrug resistance assay (Pgp ELISA); format: cell-based, human; details: relative to control
NCI-H226 = assay: NCI five-dose assay; format: cell-based; details: Homo sapiens, Non-Small-Cell Lung Cancer NCI-H226
SNB-75 = assay: NCI five-dose assay; format: cell-based; details: CNS Cancer SNB-75
T-47D = assay: NCI five-dose assay; format: cell-based; details: Breast Cancer T-47D
OVCAR-5 = assay: NCI five-dose assay; format: cell-based; details: Ovarian Cancer OVCAR-5
SW-620 = assay: NCI five-dose assay; format: cell-based, human; details: Colon Cancer SW-620
SNB-19 = assay: NCI five-dose assay; format: cell-based; details: CNS Cancer SNB-19
SR cancer cell line = assay: Annexin V/PI flow cytometry; format: cell-based, human; details: 24 h, at IC50, second value printed in the panel of Figure 11
Protocol: Figure 11 Contour diagram of annexin V/PI flow cytometry against SR cancer cell line. […] The test was repeated three times. Following incubation for 24 h, cells were analyzed by flow cytometry after double staining with annexin V/PI.

SF-295 = assay: NCI five-dose assay; format: cell-based; details: CNS Cancer SF-295
MCF7 = assay: NCI five-dose assay; format: cell-based, human; details: Breast Cancer MCF7
A549/ATCC = assay: NCI five-dose assay; format: cell-based; details: Non-Small-Cell Lung Cancer A549/ATCC
COLO 205 = assay: NCI five-dose assay; format: cell-based, human; details: Colon Cancer COLO 205
[3] = Homo sapiens, read-out: GI50 Concentration/Cell Line
[4] = Non-Small-Cell Lung Cancer subpanel
[5] = read-out: GI50 Concentration/Cell Line

`COC(=O)C=C1SC(=NNC(=O)c2cc3ccc2CCc2ccc(cc2)CC3)N(c2ccccc2)C1=O` [Compound 3a] was tested, and the LC50 (UO-31; Homo sapiens) was 6.2 µM, the GI50 (UO-31; [3]) was 1.53 µM and the “TGI Concentration/Cell Line” value (UO-31) was 3.08 µM. The LC50 (NCI lethal concentration, 50% cell kill) (NCI-H23; Homo sapiens) was 8.85 µM, the GI50 (NCI-H23; [3]) was 1.95 µM and the “TGI Concentration/Cell Line” value (NCI-H23) was 4.15 µM. For the same compound, the “GI50 Selectivity Ratio (MID^a: MID^b)” value (CNS Cancer subpanel; CNS Cancer subpanel) was 0.88, the “TGI Selectivity Ratio (MID^c: MID^d)” value (CNS Cancer subpanel; CNS Cancer subpanel) was 1.08 and the TGI Subpanel MID^d (CNS Cancer subpanel; CNS Cancer subpanel average) was 19.5 µM. For the same compound, the GI50 (CNS Cancer subpanel; Homo sapiens, CNS Cancer subpanel average, read-out: GI50 Subpanel MID^b) was 2.71 µM, the “GI50 Selectivity Ratio (MID^a: MID^b)” value (Breast Cancer subpanel; Breast Cancer subpanel) was 1.05 and the “TGI Selectivity Ratio (MID^c: MID^d)” value (Breast Cancer subpanel; Breast Cancer subpanel) was 0.87. The TGI Subpanel MID^d (Breast Cancer subpanel; Breast Cancer subpanel average) was 24.3 µM, the GI50 (Breast Cancer subpanel; Breast Cancer subpanel average, read-out: GI50 Subpanel MID^b) was 2.27 µM and the GI50 (Breast Cancer subpanel; breast cancer subpanel, read-out: GI50 values range, subpanel) was 1.54 to 1.87 µM. For the same compound, the GI50 (Renal Cancer subpanel; Homo sapiens, Renal Cancer subpanel average, read-out: GI50 Subpanel MID^b) was 1.86 µM, the “GI50 Selectivity Ratio (MID^a: MID^b)” value (Renal Cancer subpanel; Renal Cancer subpanel) was 1.28 and the “TGI Selectivity Ratio (MID^c: MID^d)” value (Renal Cancer subpanel; Renal Cancer subpanel) was 1.27. For the same compound, the TGI Subpanel MID^d (Renal Cancer subpanel; Renal Cancer subpanel average) was 16.6 µM, the GI50 (Leukemia subpanel; Leukemia subpanel average, read-out: GI50 Subpanel MID^b) was 2.72 µM and the GI50 (Leukemia subpanel; leukemia subpanel, read-out: GI50 values range, subpanel) was 2.15 to 3.15 µM. For the same compound, the “GI50 Selectivity Ratio (MID^a: MID^b)” value (Leukemia subpanel; Leukemia subpanel) was 0.88, the TGI Subpanel MID^d (Leukemia subpanel; Leukemia subpanel average) was 81.1 µM and the GI50 (Prostate Cancer subpanel; Homo sapiens, Prostate Cancer subpanel average, read-out: GI50 Subpanel MID^b) was 3.41 µM. The “GI50 Selectivity Ratio (MID^a: MID^b)” value (Prostate Cancer subpanel; Prostate Cancer subpanel) was 0.69, the “TGI Selectivity Ratio (MID^c: MID^d)” value (Prostate Cancer subpanel; Prostate Cancer subpanel) was 5.89 and the TGI Subpanel MID^d (Prostate Cancer subpanel; Prostate Cancer subpanel average) was 3.58 µM. For the same compound, the GI50 (Melanoma subpanel; Homo sapiens, Melanoma subpanel average, read-out: GI50 Subpanel MID^b) was 3.77 µM, the “GI50 Selectivity Ratio (MID^a: MID^b)” value (Melanoma subpanel; Melanoma subpanel) was 0.63 and the “TGI Selectivity Ratio (MID^c: MID^d)” value (Melanoma subpanel; Melanoma subpanel) was 0.58. For the same compound, the TGI Subpanel MID^d (Melanoma subpanel; Melanoma subpanel average) was 36.5 µM, the “GI50 Selectivity Ratio (MID^a: MID^b)” value (Colon Cancer subpanel; Colon Cancer subpanel) was 1.24 and the “TGI Selectivity Ratio (MID^c: MID^d)” value (Colon Cancer subpanel; Colon Cancer subpanel) was 5.34. It also gave a TGI Subpanel MID^d (Colon Cancer subpanel; Colon Cancer subpanel average) of 3.95 µM, a GI50 (Colon Cancer subpanel; Colon Cancer subpanel average, read-out: GI50 Subpanel MID^b) of 1.91 µM and a GI50 (Colon Cancer subpanel; colon cancer subpanel, read-out: GI50 values range, subpanel) of 1.78 to 2.13 µM. The GI50 (Ovarian Cancer subpanel; Ovarian Cancer subpanel average, read-out: GI50 Subpanel MID^b) was 2.59 µM, the GI50 (Ovarian Cancer subpanel; ovarian cancer subpanel, read-out: GI50 values range, subpanel) was 1.66 to 3.55 µM and the “GI50 Selectivity Ratio (MID^a: MID^b)” value (Ovarian Cancer subpanel; Ovarian Cancer subpanel) was 0.92. The “TGI Selectivity Ratio (MID^c: MID^d)” value (Ovarian Cancer subpanel; Ovarian Cancer subpanel) was 1.14, the TGI Subpanel MID^d (Ovarian Cancer subpanel; Ovarian Cancer subpanel average) was 18.5 µM and the GI50 ([1]; Homo sapiens, Non-Small-Cell Lung Cancer subpanel average, read-out: GI50 Subpanel MID^b) was 2.74 µM. The “GI50 Selectivity Ratio (MID^a: MID^b)” value [1, 4] was 0.87, the “TGI Selectivity Ratio (MID^c: MID^d)” value [1, 4] was 1.31 and the TGI Subpanel MID^d ([1]; Non-Small-Cell Lung Cancer subpanel average) was 16.1 µM. It also gave an LC50 (concentration killing 50% of cells) (LOX IMVI) of 6.75 µM, a GI50 (LOX IMVI; [5]) of 1.69 µM and a GI50 (MALME-3M; [5]) of 3.27 µM. It also gave a CC50 (MALME-3M; read-out: LC50 (the source's name)) of over 100 µM, an LC50 (CCRF-CEM) of over 100 µM and a GI50 (CCRF-CEM; [5]) of 2.71 µM. For the same compound, the “Pgp-Mediated MDR Fold Change” value [2] was 1.15 fold, the LC50 (concentration killing 50% of tumour cells) (NCI-H226) was over 100 µM and the GI50 (NCI-H226; [5]) was 4.38 µM. For the same compound, the “TGI Concentration/Cell Line” value (SNB-75) was over 100 µM, the LC50 (SNB-75; Homo sapiens) was over 100 µM and the GI50 (SNB-75; [3]) was 5.44 µM. For the same compound, the “TGI Concentration/Cell Line” value (T-47D) was 3.65 µM, the GI50 (T-47D; Homo sapiens, T47D, read-out: GI50 Concentration/Cell Line) was 1.54 µM and the CC50 (T-47D; Homo sapiens, T47D, read-out: LC50 (the source's name)) was 8.68 µM. The LC50 (50% lethal concentration) (OVCAR-5; Homo sapiens) was 7.68 µM, the GI50 (OVCAR-5; [3]) was 1.92 µM and the “TGI Concentration/Cell Line” value (OVCAR-5) was 3.84 µM. The “TGI Concentration/Cell Line” value (SW-620) was 3.66 µM, the LC50 (concentration killing 50% of cells) (SW-620; Homo sapiens) was 7.23 µM and the GI50 (SW-620; [3]) was 1.85 µM. The “TGI Concentration/Cell Line” value (SNB-19) was 4.25 µM, the LC50 (concentration killing 50% of cells) (SNB-19; Homo sapiens) was 9.26 µM and the GI50 (SNB-19; [3]) was 1.95 µM. The “percentage of cells in late apoptosis (upper right quadrant)” value (SR cancer cell line) was 19%, the “TGI Concentration/Cell Line” value (SF-295) was 4.19 µM and the LC50 (SF-295; Homo sapiens) was 8.5 µM. The GI50 (SF-295; [3]) was 2.07 µM, the “TGI Concentration/Cell Line” value (MCF7) was 4.95 µM and the GI50 (MCF7; [3]) was 1.87 µM. The GI50 (A549/ATCC; [3]) was 2.83 µM, the CC50 (A549/ATCC; Homo sapiens, read-out: LC50 (the source's name)) was over 100 µM and the “TGI Concentration/Cell Line” value (A549/ATCC) was 8.00 µM. The “TGI Concentration/Cell Line” value (COLO 205) was 4.61 µM and the GI50 (COLO 205; [3]) was 2.13 µM.

— paper PMC7411887, “New Paracyclophanylthiazoles with Anti-Leukemia Activity: Design, Synthesis, Molecular Docking, and Mechanistic Studies” (Molecules, 2020)
